Measurements: the supplement of paper PMC10307832

Assays:
Experiment in all cases: relative viability (nuclei count vs DMSO), 5 days (fraction); higher = more cells survive
A-427 = tested on: A-427
How it was run: (§1)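 Five library-drug doses in √10 steps were combined with a fixed anchor-drug dose, or a single drug was given alone, by pin tool to lung cancer cell lines in 1536-well plates the day after seeding. Nuclei were stained and counted after 5 days. Relative viability is the nuclei count in treated wells over that in vehicle wells, taken as the median of duplicate plates.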

ABC-1 = tested on: ABC-1
How it was run: as §1

EMC-BAC-2 = tested on: EMC-BAC-2
How it was run: as §1

HARA = tested on: HARA
How it was run: as §1

HOP-62 = tested on: HOP-62
How it was run: as §1

LK-2 = tested on: LK-2
How it was run: as §1

LXF-289 = tested on: LXF-289
How it was run: as §1

NCI-H1792 = tested on: NCI-H1792
How it was run: as §1

NCI-H1944 = tested on: NCI-H1944
How it was run: as §1

NCI-H1993 = tested on: NCI-H1993
How it was run: as §1

NCI-H2009 = tested on: NCI-H2009
How it was run: as §1

NCI-H2170 = tested on: NCI-H2170
How it was run: as §1

NCI-H2228 = tested on: NCI-H2228
How it was run: as §1

NCI-H3122 = tested on: NCI-H3122
How it was run: as §1

NCI-H322M = tested on: NCI-H322M
How it was run: as §1

NCI-H522 = tested on: NCI-H522
How it was run: as §1

NCI-H596 = tested on: NCI-H596
How it was run: as §1

NCI-H727 = tested on: NCI-H727
How it was run: as §1

PC-3 [JPC-3] = tested on: PC-3 [JPC-3]
How it was run: as §1

SK-MES-1 = tested on: SK-MES-1
How it was run: as §1

SW 1573 = tested on: SW 1573
How it was run: as §1

SW 900 = tested on: SW 900
How it was run: as §1

With `O=c1cc(N2CCOCC2)oc2c(-c3cccc4c3sc3ccccc34)cccc12` + Cc1nc(Nc2ncc(C(=O)Nc3c(C)cccc3Cl)s2)cc(N2CCN(CCO)CC2)n1 [Dasatinib] (partner 0.075 µM) the relative viability (A-427; first compound 0.01 µM) was 0.728, the relative viability (A-427; first compound 0.03162 µM) was 0.766 and the relative viability (A-427; first compound 0.1 µM) was 0.677. It also gave a relative viability (A-427; first compound 0.3162 µM) of 0.636, a relative viability (A-427; first compound 1 µM) of 0.792 and a relative viability (ABC-1; first compound 0.01 µM) of 0.569. The relative viability (ABC-1; first compound 0.03162 µM) was 0.561, the relative viability (ABC-1; first compound 0.1 µM) was 0.582 and the relative viability (ABC-1; first compound 0.3162 µM) was 0.488. It also gave a relative viability (ABC-1; first compound 1 µM) of 0.567, a relative viability (EMC-BAC-2; first compound 0.01 µM) of 0.366 and a relative viability (EMC-BAC-2; first compound 0.03162 µM) of 0.32. The relative viability (EMC-BAC-2; first compound 0.1 µM) was 0.342, the relative viability (EMC-BAC-2; first compound 0.3162 µM) was 0.371 and the relative viability (EMC-BAC-2; first compound 1 µM) was 0.344. It also gave a relative viability (HARA; first compound 0.01 µM) of 0.208, a relative viability (HARA; first compound 0.03162 µM) of 0.282 and a relative viability (HARA; first compound 0.1 µM) of 0.276. It also gave a relative viability (HARA; first compound 0.3162 µM) of 0.268, a relative viability (HARA; first compound 1 µM) of 0.243 and a relative viability (HOP-62; first compound 0.01 µM) of 0.676. For the same compound, the relative viability (HOP-62; first compound 0.03162 µM) was 0.676, the relative viability (HOP-62; first compound 0.1 µM) was 0.672 and the relative viability (HOP-62; first compound 0.3162 µM) was 0.639. The relative viability (HOP-62; first compound 1 µM) was 0.616, the relative viability (LK-2; first compound 0.01 µM) was 0.329 and the relative viability (LK-2; first compound 0.03162 µM) was 0.289. The relative viability (LK-2; first compound 0.1 µM) was 0.338, the relative viability (LK-2; first compound 0.3162 µM) was 0.339 and the relative viability (LK-2; first compound 1 µM) was 0.279. The relative viability (LXF-289; first compound 0.01 µM) was 0.239, the relative viability (LXF-289; first compound 0.03162 µM) was 0.223 and the relative viability (LXF-289; first compound 0.1 µM) was 0.187. For the same compound, the relative viability (LXF-289; first compound 0.3162 µM) was 0.213, the relative viability (LXF-289; first compound 1 µM) was 0.247 and the relative viability (NCI-H1792; first compound 0.01 µM) was 0.857. For the same compound, the relative viability (NCI-H1792; first compound 0.03162 µM) was 0.663, the relative viability (NCI-H1792; first compound 0.1 µM) was 0.856 and the relative viability (NCI-H1792; first compound 0.3162 µM) was 0.996. It also gave a relative viability (NCI-H1792; first compound 1 µM) of 0.788, a relative viability (NCI-H1944; first compound 0.01 µM) of 0.218 and a relative viability (NCI-H1944; first compound 0.03162 µM) of 0.234. The relative viability (NCI-H1944; first compound 0.1 µM) was 0.203, the relative viability (NCI-H1944; first compound 0.3162 µM) was 0.24 and the relative viability (NCI-H1944; first compound 1 µM) was 0.225. The relative viability (NCI-H1993; first compound 0.01 µM) was 0.603, the relative viability (NCI-H1993; first compound 0.03162 µM) was 0.595 and the relative viability (NCI-H1993; first compound 0.1 µM) was 0.657. For the same compound, the relative viability (NCI-H1993; first compound 0.3162 µM) was 0.554, the relative viability (NCI-H1993; first compound 1 µM) was 0.597 and the relative viability (NCI-H2009; first compound 0.01 µM) was 0.317. The relative viability (NCI-H2009; first compound 0.03162 µM) was 0.268, the relative viability (NCI-H2009; first compound 0.1 µM) was 0.303 and the relative viability (NCI-H2009; first compound 0.3162 µM) was 0.277. For the same compound, the relative viability (NCI-H2009; first compound 1 µM) was 0.256, the relative viability (NCI-H2170; first compound 0.01 µM) was 0.574 and the relative viability (NCI-H2170; first compound 0.03162 µM) was 0.569. For the same compound, the relative viability (NCI-H2170; first compound 0.1 µM) was 0.728, the relative viability (NCI-H2170; first compound 0.3162 µM) was 0.557 and the relative viability (NCI-H2170; first compound 1 µM) was 0.621. For the same compound, the relative viability (NCI-H2228; first compound 0.01 µM) was 0.538, the relative viability (NCI-H2228; first compound 0.03162 µM) was 0.416 and the relative viability (NCI-H2228; first compound 0.1 µM) was 0.49. It also gave a relative viability (NCI-H2228; first compound 0.3162 µM) of 0.523, a relative viability (NCI-H2228; first compound 1 µM) of 0.543 and a relative viability (NCI-H3122; first compound 0.01 µM) of 0.667. For the same compound, the relative viability (NCI-H3122; first compound 0.03162 µM) was 0.836, the relative viability (NCI-H3122; first compound 0.1 µM) was 0.753 and the relative viability (NCI-H3122; first compound 0.3162 µM) was 0.764. The relative viability (NCI-H3122; first compound 1 µM) was 0.751, the relative viability (NCI-H322M; first compound 0.01 µM) was 0.231 and the relative viability (NCI-H322M; first compound 0.03162 µM) was 0.255. For the same compound, the relative viability (NCI-H322M; first compound 0.1 µM) was 0.292, the relative viability (NCI-H322M; first compound 0.3162 µM) was 0.252 and the relative viability (NCI-H322M; first compound 1 µM) was 0.224. It also gave a relative viability (NCI-H522; first compound 0.01 µM) of 1.01, a relative viability (NCI-H522; first compound 0.03162 µM) of 0.915 and a relative viability (NCI-H522; first compound 0.1 µM) of 0.797. It also gave a relative viability (NCI-H522; first compound 0.3162 µM) of 0.859, a relative viability (NCI-H522; first compound 1 µM) of 0.745 and a relative viability (NCI-H596; first compound 0.01 µM) of 0.711. The relative viability (NCI-H596; first compound 0.03162 µM) was 0.574, the relative viability (NCI-H596; first compound 0.1 µM) was 0.561 and the relative viability (NCI-H596; first compound 0.3162 µM) was 0.558. The relative viability (NCI-H596; first compound 1 µM) was 0.648, the relative viability (NCI-H727; first compound 0.01 µM) was 0.466 and the relative viability (NCI-H727; first compound 0.03162 µM) was 0.292. For the same compound, the relative viability (NCI-H727; first compound 0.1 µM) was 0.456, the relative viability (NCI-H727; first compound 0.3162 µM) was 0.367 and the relative viability (NCI-H727; first compound 1 µM) was 0.38. The relative viability (PC-3 [JPC-3]; first compound 0.01 µM) was 0.97, the relative viability (PC-3 [JPC-3]; first compound 0.03162 µM) was 0.974 and the relative viability (PC-3 [JPC-3]; first compound 0.1 µM) was 1.02. The relative viability (PC-3 [JPC-3]; first compound 0.3162 µM) was 0.935, the relative viability (PC-3 [JPC-3]; first compound 1 µM) was 0.993 and the relative viability (SK-MES-1; first compound 0.01 µM) was 0.413. The relative viability (SK-MES-1; first compound 0.03162 µM) was 0.363, the relative viability (SK-MES-1; first compound 0.1 µM) was 0.349 and the relative viability (SK-MES-1; first compound 0.3162 µM) was 0.447. For the same compound, the relative viability (SK-MES-1; first compound 1 µM) was 0.337, the relative viability (SW 1573; first compound 0.01 µM) was 0.463 and the relative viability (SW 1573; first compound 0.03162 µM) was 0.482. For the same compound, the relative viability (SW 1573; first compound 0.1 µM) was 0.535, the relative viability (SW 1573; first compound 0.3162 µM) was 0.546 and the relative viability (SW 1573; first compound 1 µM) was 0.475. The relative viability (SW 900; first compound 0.01 µM) was 0.476, the relative viability (SW 900; first compound 0.03162 µM) was 0.648 and the relative viability (SW 900; first compound 0.1 µM) was 0.66. For the same compound, the relative viability (SW 900; first compound 0.3162 µM) was 0.539 and the relative viability (SW 900; first compound 1 µM) was 0.507.
